What follows are compounds tested against T1, hNPRA (Homo sapiens, UniProt P16066) (assay: NPRA Functional Cell Assay (cGMP HTRF)). Conditions: Human NPRA HEK JumpIn stable cells; cGMP by HTRF after 1 hour at 37° C.; 10-point dose response.
T1 construct: expressed in transfected cells
T1 sequence (P16066 33-1061): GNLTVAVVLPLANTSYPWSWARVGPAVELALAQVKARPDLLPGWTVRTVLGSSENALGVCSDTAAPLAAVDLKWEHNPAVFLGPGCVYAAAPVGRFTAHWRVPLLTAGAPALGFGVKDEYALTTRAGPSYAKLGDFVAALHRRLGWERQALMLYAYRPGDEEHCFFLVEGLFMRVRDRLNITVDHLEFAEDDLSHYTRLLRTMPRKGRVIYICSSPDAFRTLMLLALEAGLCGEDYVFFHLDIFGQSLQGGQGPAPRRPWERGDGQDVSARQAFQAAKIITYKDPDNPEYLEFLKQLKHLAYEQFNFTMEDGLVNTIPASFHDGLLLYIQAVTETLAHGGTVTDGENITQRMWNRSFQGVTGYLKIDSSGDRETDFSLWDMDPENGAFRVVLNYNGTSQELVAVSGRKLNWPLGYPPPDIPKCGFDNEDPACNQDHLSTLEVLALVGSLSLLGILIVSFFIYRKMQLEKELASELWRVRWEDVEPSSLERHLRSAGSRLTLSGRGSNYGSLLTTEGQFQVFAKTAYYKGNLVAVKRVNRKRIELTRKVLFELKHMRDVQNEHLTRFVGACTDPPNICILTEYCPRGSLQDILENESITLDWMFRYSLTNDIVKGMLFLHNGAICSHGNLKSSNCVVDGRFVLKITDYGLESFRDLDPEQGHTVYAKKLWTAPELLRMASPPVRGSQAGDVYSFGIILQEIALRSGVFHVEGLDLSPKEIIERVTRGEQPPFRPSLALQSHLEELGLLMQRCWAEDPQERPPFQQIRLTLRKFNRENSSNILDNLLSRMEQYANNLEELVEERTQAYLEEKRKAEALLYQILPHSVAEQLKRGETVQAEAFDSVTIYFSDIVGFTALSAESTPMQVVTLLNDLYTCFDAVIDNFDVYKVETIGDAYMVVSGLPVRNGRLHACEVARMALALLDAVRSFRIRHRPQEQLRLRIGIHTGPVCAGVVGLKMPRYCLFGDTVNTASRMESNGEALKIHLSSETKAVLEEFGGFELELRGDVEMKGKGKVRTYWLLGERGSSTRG
Format: cell-based
Summary of the method: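 HEK JumpIn cells stably expressing human, rat or dog NPRA incubated 1 hour at 37° C with compound (10-point titration) in Opti-MEM buffer with 100 uM IBMX and 100 uM RO20. cGMP measured by HTRF against an on-plate calibration curve; EC50 from 4-parameter fit, positive control 10 nM rat-ANP (rat) or 50 nM h-ANP (human, dog).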

Row | Structure (SMILES) | EC50 [nM]
1 | CC(C)[C@]1(F)CCc2nc3c(F)cc(C(=O)N[C@H](CCN4CCC(O)CC4)c4ccc(N5CC6CCC5CO6)nc4)cc3cc2C1 (stereo partly drawn) [Example 34, (7S)-N-((1R)-1-(6-(2-oxa-5-azabicyclo[2.2.2]octan-5-yl)pyridin-3-yl)-3-(4-hydroxypiperidin-1-yl)propyl)-4,7-difluoro-7-isopropyl-5,6,7,8-tetrahydroacridine-2-carboxamide] | 2840
2 | CC(C)[C@]1(F)CCc2nc3c(F)cc(C(=O)N[C@H](CCN4CC(O)C4)c4ccc(-c5ccnnc5)nc4)cc3cc2C1 (racemic) [Example 63, rac-(7S)-4,7-difluoro-7-isopropyl-N-[rac-(1R)-3-(3-hydroxyazetidin-1-ium-1-yl)-1-(6-pyridazin-4-yl-3-pyridyl)propyl]-6,8-dihydro-5H-acridine-2-carboxamide;2,2,2-trifluoroacetate] | 1190
3 | CC(C)[C@]1(F)CCc2nc3c(F)cc(C(=O)N[C@H](CCN4CCC[C@H](O)C4)c4ccc(-c5ccnnc5)nc4)cc3cc2C1 (racemic) [Example 36, rac-(7S)-4,7-difluoro-7-isopropyl-N-[rac-(1R)-1-(6-pyridazin-4-yl-3-pyridyl)-3-[rac-(3S)-3-hydroxypiperidin-1-ium-1-yl]propyl]-6,8-dihydro-5H-acridine-2-carboxamide;2,2,2-trifluoroacetate] | 260
4 | CC(C)[C@]1(F)CCc2nc3c(F)cc(C(=O)N[C@H](CCN4CCC(O)CC4)c4ccc(N5CC(=O)NC5=O)nc4)cc3cc2C1 [Example 28] | 321
5 | CC(C)(C)[C@H]1CCc2nc3ccc(C(=O)N[C@H](CCN4CCC(O)CC4)c4ccc(N5CCOC5=O)cc4)cc3cc2C1 [Example 3, (7S)-7-tert-butyl-N-{(1R)-3-(4-hydroxypiperidin-1-yl)-1-[4-(2-oxo-1,3-oxazolidin-3-yl)phenyl]propyl}-5,6,7,8-tetrahydroacridine-2-carboxamide] | 753
6 | C[Si](C)(C)[C@H]1CCc2nc3ccc(C(=O)N[C@H](CCN4CCC(O)CC4)c4ccc(N5CCOC5=O)cc4)cc3cc2C1 [Example 5, (7S)-N-{(1R)-3-(4-hydroxypiperidin-1-yl)-1-[4-(2-oxo-1,3-oxazolidin-3-yl)phenyl]propyl}-7-(trimethylsilyl)-5,6,7,8-tetrahydroacridine-2-carboxamide] | 1980
7 | CN1CC(NC(=O)c2cccc([C@@H](CCN3CCC[C@H]3CO)NC(=O)c3ccc4nc5c(cc4c3)C[C@@H](C3(C(F)F)CC3)CC5)c2)C1 [Example 23] | 405
8 | CC(C)[C@]1(F)CCc2nc3c(F)cc(C(=O)N[C@H](CCN4CCC5(CCOC5)CC4)c4ccc(-c5ccnnc5)nc4)cc3cc2C1 (racemic) [Example 38, rac-(7S)-4,7-difluoro-7-isopropyl-N-[rac-(1R)-3-(2-oxa-8-azoniaspiro[4.5]decan-8-yl)-1-(6-pyridazin-4-yl-3-pyridyl)propyl]-6,8-dihydro-5H-acridine-2-carboxamide;2,2,2-trifluoroacetate] | 317
9 | CN1CC(NC(=O)c2cccc([C@@H](CCN3CCC[C@H]3CO)NC(=O)c3ccc4nc5c(cc4c3)C[C@@H](C3(C(F)(F)F)CC3)CC5)c2)C1 [Example 22, (S)-N-((R)-3-((S)-2-(hydroxymethyl)pyrrolidin-1-yl)-1-(3-((1-methylazetidin-3-yl)carbamoyl)phenyl)propyl)-7-(1-(trifluoromethyl)cyclopropyl)-5,6,7,8-tetrahydroacridine-2-carboxamide] | 278
10 | CN1CC(NC(=O)c2cccc([C@@H](CCN3CCC(CC(=O)O)CC3)NC(=O)c3ccc4nc5c(cc4c3)C[C@@H](C3(C)CC3)CC5)c2)C1 (racemic) [Example 66, 2-[1-[rac-(3R)-3-[3-[(1-methylazetidin-3-yl)carbamoyl]phenyl]-3-[[rac-(7S)-7-(1-methylcyclopropyl)-5,6,7,8-tetrahydroacridine-2-carbonyl]amino]propyl]-4-piperidyl]acetic acid] | 398
11 | CC1([C@H]2CCc3nc4ccc(C(=O)N[C@H](CCN5CCC[C@H]5CO)c5ccc(N6CCOC6=O)cc5)cc4cc3C2)CC1 [Example 2, (S)-N-((R)-3-((S)-2-(hydroxymethyl)pyrrolidin-1-yl)-1-(4-(2-oxooxazolidin-3-yl)phenyl)propyl)-7-(1-methylcyclopropyl)-5,6,7,8-tetrahydroacridine-2-carboxamide] | 1720
12 | CC(C)[C@]1(F)CCc2nc3c(F)cc(C(=O)N[C@H](CCN4CCC(O)CC4)c4ccc(N5CC[C@@H](O)[C@H](F)C5)nc4)cc3cc2C1 [Example 33, (S)-4,7-difluoro-N-((R)-1-(6-((3R,4R)-3-fluoro-4-hydroxypiperidin-1-yl)pyridin-3-yl)-3-(4-hydroxypiperidin-1-yl)propyl)-7-isopropyl-5,6,7,8-tetrahydroacridine-2-carboxamide] | 871

The remaining compounds from weak to strong by EC50, led by results:

Row | EC50 [nM] | Structure (SMILES)
13 | 258 | CC(C)[C@]1(F)CCc2nc3c(F)cc(C(=O)N[C@H](CCN4CCC5(O)CCCCC5C4)c4ccc(-c5ccnnc5)nc4)cc3cc2C1 (mixture of isomers) [Example 52, rac-(7S)-4,7-difluoro-7-isopropyl-N-[rac-(1R)-3-(4a-hydroxy-1,3,4,5,6,7,8,8a-octahydroisoquinolin-2-yl)-1-(6-pyridazin-4-yl-3-pyridyl)propyl]-6,8-dihydro-5H-acridine-2-carboxamide]
14 | 240 | CC(C)[C@]1(F)CCc2nc3c(F)cc(C(=O)N[C@H](CCN4CCC5(CC4)COC5)c4ccc(-c5ccnnc5)nc4)cc3cc2C1 (racemic) [Example 50, rac-(7S)-4,7-difluoro-7-isopropyl-N-[rac-(1R)-3-(2-oxa-7-azaspiro[3.5]nonan-7-yl)-1-(6-pyridazin-4-yl-3-pyridyl)propyl]-6,8-dihydro-5H-acridine-2-carboxamide]
15 | 219 | CC(C)[C@]1(F)CCc2nc3c(F)cc(C(=O)N[C@H](CCN4CCC(O)CC4(C)C)c4ccc(-c5ccnnc5)nc4)cc3cc2C1 (stereo partly drawn) [Example 11, (7S)-4,7-difluoro-N-[(1R)-3-(4-hydroxy-2,2-dimethylpiperidin-1-yl)-1-(6-pyridazin-4-ylpyridin-3-yl)propyl]-7-(1-methylethyl)-5,6,7,8-tetrahydroacridine-2-carboxamide]
16 | 217 | CC(C)[C@]1(F)CCc2nc3c(F)cc(C(=O)N[C@H](CCN4CCC5(CCO5)CC4)c4ccc(-c5ccnnc5)nc4)cc3cc2C1 [Example 17, (7S)-4,7-difluoro-7-(1-methylethyl)-N-[(1R)-3-(1-oxa-7-azaspiro[3.5]non-7-yl)-1-(6-pyridazin-4-ylpyridin-3-yl)propyl]-5,6,7,8-tetrahydroacridine-2-carboxamide]
17 | 188 | CC(C)[C@]1(F)CCc2nc3c(F)cc(C(=O)N[C@H](CCN4CCC(C(C)(C)O)CC4)c4ccc(-c5ccnnc5)nc4)cc3cc2C1 (racemic) [Example 47, rac-(7S)-4,7-difluoro-7-isopropyl-N-[rac-(1R)-3-[4-(1-hydroxy-1-methyl-ethyl)piperidin-1-ium-1-yl]-1-(6-pyridazin-4-yl-3-pyridyl)propyl]-6,8-dihydro-5H-acridine-2-carboxamide;2,2,2-trifluoroacetate]
18 | 158 | CN1CC(NC(=O)c2cccc([C@@H](CCN3CCC[C@H]3CO)NC(=O)c3ccc4nc5c(cc4c3)C[C@@H](C3(C)CC3)CC5)c2)C1 [Example 21, (S)-N-((R)-3-((S)-2-(hydroxymethyl)pyrrolidin-1-yl)-1-(3-((1-methylazetidin-3-yl)carbamoyl)phenyl)propyl)-7-(1-methylcyclopropyl)-5,6,7,8-tetrahydroacridine-2-carboxamide]
19 | 112 | CC(C)[C@]1(F)CCc2nc3c(F)cc(C(=O)N[C@H](CCN4CCC(O)CC4)c4ccc(-c5ccnnc5)nc4)cc3cc2C1 [Example 10, (7S)-4,7-difluoro-N-[(1R)-3-(4-hydroxypiperidin-1-yl)-1-(6-pyridazin-4-ylpyridin-3-yl)propyl]-7-(1-methylethyl)-5,6,7,8-tetrahydroacridine-2-carboxamide]
20 | 105 | CC(C)[C@]1(F)CCc2nc3c(F)cc(C(=O)N[C@H](CCN4CCC5(CC[C@H](O)C5)CC4)c4ccc(-c5ccnnc5)nc4)cc3cc2C1 (racemic) [Example 48, rac-(7S)-4,7-difluoro-7-isopropyl-N-[rac-(1R)-1-(6-pyridazin-4-yl-3-pyridyl)-3-[rac-(3S)-3-hydroxy-8-azaspiro[4.5]decan-8-yl]propyl]-6,8-dihydro-5H-acridine-2-carboxamide]
